Legend:
[1] = Metabolic stability in human liver microsomes; format: in vitro ADME; settings: human liver microsomes 0.5 mg mL^-1, NADPH 1 mM, 0-60 min; read-out: Liver microsomal stability t1/2 (min) Human
Description: The purpose of this study was to investigate the metabolic stability of the compounds of the present disclosure in human and dog liver microsomes.
The compounds were co-incubated with human (or dog) liver microsomes, and the reaction was initiated by adding coenzyme NADPH (1 mM). At 0, 5, 15, 30, and 60 minutes, 60 µL of incubation solution was removed, and 180 µL of acetonitrile containing internal standard (clopidogrel) was added to quench the reaction, the mixture was shaken for 10 seconds, centrifuged at 10000 rpm for 10 minutes, and the supernatant was taken for analysis by LC-MS/MS. The in vitro intrinsic clearance was calculated based on the elimination half-life of the test compound in the incubation system. Midazolam was used as an internal reference compound, with two parallel incubations for each. Incubation conditions are summarized in Table 6 below: Table 6 Incubation conditions for the example compounds of the present disclosure
The ratio of the peak area of analyte to internal standard (Aanalyte/AIS) was obtained from the instrument, and the remaining percentage (%Control) was calculated from the ratio of Aanalyte/AIS in non-zero time point samples to zero time samples. Ln (%Control) was plotted against incubation time and linearly fitted. The test compound clearance constant (k, min^-1) and clearance half-life (T1/2, min) were calculated using the following equations. k = −slope [formula] T1/2 = 0.693/k. [formula]

[2] = Pharmacokinetic test in mice after intragastric administration; format: in vivo; settings: male, mouse, plasma, ICR mice, Oral (10 mg/kg)
Description: ICR mice were used as test animals, the plasma concentrations of the control compound HRO761 and the compounds of the present disclosure at different time points after intragastric administration were determined by LC/MS/MS method, and the pharmacokinetic characteristics of the compounds of the present disclosure in mice were studied.
ICR mice, male, 30.8 to 38.0 g, purchased from Vital River Laboratory Animal Technology Co., Ltd.
An appropriate amount of the test compound was weighed, and an appropriate amount of DMA (N,N-dimethylacetamide), 30% Solutol HS15 (30% polyethylene glycol-15 hydroxystearate), and Saline (saline) were added sequentially, the mixture was ultrasonicated and vortex mixed to prepare a 1 mg/mL dosing formulation. The ratio of DMA:30% Solutol HS15:Saline was 5:5:90 (v/v/v).
After overnight fasting, ICR mice in each test compound injection group (9 mice per group) were administered intragastrically (PO, compound dose was 10 mg/kg, administration volume was 10 mL/kg), and food was given 4 hours after administration.
About 0.1 mL of blood was collected via the orbital cavity before administration and at 0.25 h, 0.5 h, 1 h, 2 h, 4 h, 8 h, 10 h, and 24 h after administration, and whole blood samples were placed in anticoagulant tubes containing EDTA-K2. The samples were placed on ice after collection, and plasma was separated by centrifugation (centrifugation conditions: 1500 g, 10 minutes). The collected plasma was stored at -40 to -20 °C before analysis.
The content of the test compound in mouse plasma after intragastric administration was determined by LC-MS/MS.

recombinant human WRN = molecular target: T1, recombinant human WRN (Homo sapiens, UniProt Q14191); experiment: Inhibition of WRN enzyme activity (ATPase), ADP-Glo Kinase Assay; format: biochemical; settings: WRN protein 5 nM, Flap 0.1 nM, ATP 30 µM; read-out: IC50
T1 construct: purchased BPS 101264
How it was run: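 Recombinant human WRN (5 nM) was preincubated with compound (1000–0.004 nM) for 15 min at room temperature. Flap26 5'-flap DNA (0.1 nM) and 30 µM ATP were then added for 10 min in Tris pH 7.5, MgCl2, NaCl, BSA, Pluronic buffer. ADP was detected by ADP-Glo luminescence, and IC50 was obtained by nonlinear regression versus a 0.1% DMSO control.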

T1 sequence (Q14191 whole entry): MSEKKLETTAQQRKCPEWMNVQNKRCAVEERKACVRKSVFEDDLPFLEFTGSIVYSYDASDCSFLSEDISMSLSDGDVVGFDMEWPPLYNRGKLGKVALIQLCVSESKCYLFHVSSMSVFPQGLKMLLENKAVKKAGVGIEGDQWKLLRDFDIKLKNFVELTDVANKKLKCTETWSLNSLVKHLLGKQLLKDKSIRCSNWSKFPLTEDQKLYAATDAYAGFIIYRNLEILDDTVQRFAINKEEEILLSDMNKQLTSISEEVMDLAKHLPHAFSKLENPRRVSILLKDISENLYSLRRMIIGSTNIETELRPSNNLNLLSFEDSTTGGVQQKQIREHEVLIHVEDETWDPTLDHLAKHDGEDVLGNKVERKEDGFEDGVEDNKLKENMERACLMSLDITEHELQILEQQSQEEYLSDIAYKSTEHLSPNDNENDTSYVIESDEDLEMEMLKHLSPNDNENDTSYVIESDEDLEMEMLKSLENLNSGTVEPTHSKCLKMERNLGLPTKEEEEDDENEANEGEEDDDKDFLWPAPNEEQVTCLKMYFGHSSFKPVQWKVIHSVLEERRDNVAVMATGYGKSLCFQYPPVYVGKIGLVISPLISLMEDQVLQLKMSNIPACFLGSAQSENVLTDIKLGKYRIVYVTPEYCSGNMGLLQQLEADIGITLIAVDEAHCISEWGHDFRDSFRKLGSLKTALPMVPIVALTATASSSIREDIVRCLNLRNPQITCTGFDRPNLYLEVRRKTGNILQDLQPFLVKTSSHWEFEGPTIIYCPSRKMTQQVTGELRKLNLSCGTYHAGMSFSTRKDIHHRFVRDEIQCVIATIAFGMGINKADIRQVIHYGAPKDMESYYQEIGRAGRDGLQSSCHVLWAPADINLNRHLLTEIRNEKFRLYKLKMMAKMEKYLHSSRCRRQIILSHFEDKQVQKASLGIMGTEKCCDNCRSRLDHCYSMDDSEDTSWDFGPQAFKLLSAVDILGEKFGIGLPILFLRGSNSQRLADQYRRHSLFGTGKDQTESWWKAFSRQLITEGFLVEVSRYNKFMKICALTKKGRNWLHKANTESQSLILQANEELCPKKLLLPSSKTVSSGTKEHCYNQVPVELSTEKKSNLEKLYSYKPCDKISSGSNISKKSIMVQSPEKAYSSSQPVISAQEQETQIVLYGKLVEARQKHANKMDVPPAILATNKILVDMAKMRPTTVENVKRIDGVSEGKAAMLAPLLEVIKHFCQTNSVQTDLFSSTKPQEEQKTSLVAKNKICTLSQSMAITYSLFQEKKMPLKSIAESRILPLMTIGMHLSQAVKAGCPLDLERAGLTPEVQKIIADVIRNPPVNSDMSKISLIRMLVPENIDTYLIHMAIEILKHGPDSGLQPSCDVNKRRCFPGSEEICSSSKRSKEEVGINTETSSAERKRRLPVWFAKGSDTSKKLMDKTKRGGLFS

CCc1c(N2CCN(C(=O)c3ncnc(C)c3O)CC2)c(=O)n2nc(-c3cc4ccccc4s3)nc2n1CC(=O)Nc1ccc(C(F)(F)F)cc1Cl [Example 80, 2-(2-(benzo[b]thiophen-2-yl)-5-ethyl-6-(4-(5-hydroxy-6-methylpyrimidine-4-carbonyl)piperazin-1-yl)-7-oxo-[1,2,4]triazolo[1,5-a]pyrimidin-4(7H)-yl)-N-(2-chloro-4-(trifluoromethyl)phenyl)acet amide]
half-life [1]: 1300 min | AUC(0-t) ([2]; read-out: Area under curve AUC0-t): 104 µg·h/mL | half-life ([2]; read-out: Half-life T1/2 (converted)): 2.11 h | Cmax ([2]; read-out: Plasma concentration Cmax): 19800 ng/mL | IC50 (recombinant human WRN): 1 to 100 nM
